In patent EP4737449A1 (Changchun Genescience Pharmaceutical Co., Ltd., priority 2023, dated 2025):
Where two headings read alike, the source gives them in different places.

Key:
p53-Y220C mutant protein = target: T1, p53-Y220C mutant protein (Homo sapiens, UniProt P04637, Y220C); assay: In vitro DNA binding activity assay (TR-FRET); assay type: biochemical; details: concentration required to increase the binding activity of protein to DNA by 50%
T1 construct: The recombinant Y220C p53 DBD protein with his-tag
How it was run: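 SC150, the compound concentration increasing p53-Y220C DNA binding by 50% relative to vehicle, came from background-corrected 665/615 nm TR-FRET ratios. His-tagged DBD and compound were preincubated 60 min at RT before biotin-DNA plus Eu-anti-His/streptavidin-d2 detection overnight in the dark.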

NUGC-3 cells = assay: NUGC-3 cell proliferation assay (CTG, 7 days); assay type: cell-based, human; details: Homo sapiens, NUGC-3, 168 h
How it was run: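 Cells (200/well) in 1640 medium with 10% serum exposed to 10-point, 3-fold DMSO dilutions (duplicates) for 7 days at 37°C. Viability read by CellTiter-Glo luminescence; % inhibition normalized to DMSO and blank, IC50 from variable-slope nonlinear fit.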

[1] = target: CYP 3A4 enzyme in human liver microsomes (Homo sapiens, UniProt P08684); assay: CYP3A4 inhibition experiment in human liver microsomes
Sequence of CYP 3A4 enzyme in human liver microsomes (P08684 whole entry): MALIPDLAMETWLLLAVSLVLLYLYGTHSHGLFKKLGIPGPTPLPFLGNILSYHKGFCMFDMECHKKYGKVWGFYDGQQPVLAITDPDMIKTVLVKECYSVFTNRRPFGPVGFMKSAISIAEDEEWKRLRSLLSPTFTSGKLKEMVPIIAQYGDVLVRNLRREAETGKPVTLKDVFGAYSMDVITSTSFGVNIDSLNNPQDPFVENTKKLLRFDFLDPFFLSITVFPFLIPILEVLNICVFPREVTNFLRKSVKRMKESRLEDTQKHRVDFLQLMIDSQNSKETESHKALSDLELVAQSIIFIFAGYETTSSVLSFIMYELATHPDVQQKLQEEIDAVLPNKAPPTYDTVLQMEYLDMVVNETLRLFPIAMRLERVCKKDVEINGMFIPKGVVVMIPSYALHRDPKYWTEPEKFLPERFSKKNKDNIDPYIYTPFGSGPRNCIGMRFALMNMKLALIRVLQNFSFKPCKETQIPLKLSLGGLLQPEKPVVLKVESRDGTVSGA
Procedure: The inhibitory effects of the test compounds on CYP 3A4T (with testosterone as substrate) and 3A4M (with midazolam as substrate) in human liver microsomes were evaluated in vitro to assess the medication safety of the compounds.
This study used the human liver microsome system and the cytochrome P450 enzyme probe substrate recommended by FDA guidelines for in vitro drug interaction studies to investigate the inhibition of the CYP 3A4 enzyme in human liver microsomes by the test compounds.
Test group (TG): Human liver microsomes were incubated with different concentrations of test compounds, NADPH (final concentration 2.00 mM) and probe substrates of different sub-enzymes (Table 4) for 5 min.
Positive control group (PC): Human liver microsomes were incubated with inhibitors (Table 4), NADPH (final concentration 2.00 mM) and probe substrates of different sub-enzymes (Table 4) for 5 min. Table 4 Probe substrates of sub-enzymes, inhibitors and incubation systems
The system was pre-incubated at 37°C for 5 min, and then 15 µL of 8 mM NADPH solution preheated at 37°C for 5-10 min to start the reaction. After incubation of the 96-well plate at 37°C for 5 min, 180 µL of acetonitrile:methanol (ACN:MeOH=1:1) solution containing internal standard (IS) was added to terminate the reaction. […] 80 µL of the supernatant was taken, added to 120 µL of ultrapure water, shaken evenly, and then detected by LC-MS/MS.
199 µL of 0.2 mg/mL HLM and 1 µL of 1 mM positive control inhibitor (ketoconazole) working solutions were taken and mixed evenly. 30 µL of the drug-containing liver microsome solution was taken and added to a 96-well plate, then 10 µL of substrate working solution (20 µM midazolam) was added, in duplicate. The system was pre-incubated at 37°C for 5 min, and then 15 µL of 8 mM NADPH solution preheated at 37°C for 5-10 min to start the reaction. After incubation of the 96-well plate at 37°C for 5 min, 180 µL of ACN:MeOH(1:1) solution containing IS was added to terminate the reaction. […] 80 µL of the supernatant was taken, added to 120 µL of ultrapure water, shaken evenly, and then detected by LC-MS/MS.
4.2.5.1 The relative activity of CYP450 sub-enzymes at different concentrations was calculated by dividing the peak area ratio (analyte peak area/internal standard peak area) of metabolites in the presence of the test sample or positive control by the peak area ratio of metabolites in the solvent control sample in the absence of the test article or positive control, according to the following formula: [formula] [formula]
4.2.5.2 Half maximal inhibitory concentration (IC50) was obtained by fitting according to the following model formula using Prism software: Y = Bottom + (Top−Bottom)/(1+10^(∧)((LogIC50−X)×HillSlope)) [formula]
X is the test sample concentration converted to logarithm (Log µM), Y is the relative activity (% of NC), Bottom and Top represent the percentage of enzyme activity at the bottom platform and top platform of the curve, respectively, and HillSlope represents the slope; to optimize the fitting effect, the use of other (nonlinear) dose-response models for fitting is not considered as a deviation from the protocol.

[2] = NUGC-3 cell proliferation, 7 days, CTG, read-out: IC50
[3] = CYP 3A4M IC50, human liver microsomes, midazolam as substrate
[4] = CYP 3A4T IC50, human liver microsomes, testosterone as substrate

Row | SMILES | SC150 (p53-Y220C mutant protein) | IC50 (NUGC-3 cells; [2]) | IC50 [1, 3] | IC50 [1, 4] | IC50 (NUGC-3 cells)
1 | CN1CC[C@@H](Nc2cccc3c(CC(F)(F)F)c(C#CCNC(=O)c4cc5n(c4)CCOC5)nn23)[C@@H](F)C1 [Compound 281, N-[3-(7-{[(3S,4R)-3-fluoro-1-methylpiperidin-4-yl]amino}-3-(2,2,2-trifluoroethyl)pyrazolo[1,5-a]pyridin-2-yl)prop-2-yn-1-yl]-3,4-dihydro-1H-pyrrolo[2,1-c][1,4]oxazine-7-carboxamide] | 13 nM | 0.413 µM | > 30 µM | > 30 µM | 
2 | CN1CC[C@@H](Nc2cccc3c(CC(F)(F)F)c(C#CCNC(=O)c4ncn(C(C)(C)C)c4N)nn23)[C@@H](F)C1 [Compound 283, 5-amino-1-tert-butyl-N [3-(7-{[(3S,4R)-3-fluoro-1-methylpiperidin-4-yl]amino}-3-(2,2,2-trifluoroethyl)pyrazolo[1,5-a]pyridin-2-yl)prop-2-yn-1-yl]-1H-pyrazole-4-carboxamide] | 19 nM |  | > 30 µM | 18.1 µM | 1.64 µM
3 | CN1CC[C@@H](Nc2cccc3c(CC(F)(F)F)c(C#CCNC(=O)c4cnn(C56CC(C5)C6)c4N)nn23)[C@@H](F)C1 [Compound 289, 5-amino-1-(dicyclo[1.1.1]pent-1-yl)-N-[3-(7-{[(3S,4R)-3-fluoro-1-methylpiperidin-4-yl]amino}-3-(2,2,2-trifluoroethyl)pyrazolo[1,5-a]pyridin-2-yl)prop-2-yn-1-yl]-1H-pyrazole-4-carboxamide] | 5 nM |  | 12.9 µM | 13.2 µM | 0.182 µM
4 | CCN1CC[C@@H](Nc2cccc3c(CC(F)(F)F)c(C#CCNC(=O)c4cnn(C(C)(C)C)c4N)nn23)[C@@H](F)C1 [Compound 353, 5-amino-1-tert-butyl-N-[3-(7-{[(3S,4R)-1-ethyl-3-fluoropiperidin-4-yl]amino}-3-(2,2,2-trifluoroethyl)pyrazolo[1,5-a]pyridin-2-yl)prop-2-yn-1-yl]-1H-pyrazole-4-carboxamide] | 4 nM | 0.152 µM | 22.3 µM | 26.5 µM | 
5 | CC(C)N1CC[C@@H](Nc2cccc3c(CC(F)(F)F)c(C#CCNC(=O)c4cnn(C(C)(C)C)c4N)nn23)[C@@H](F)C1 [Compound 354] | 3 nM |  | 15.6 µM | 18.5 µM | 0.177 µM
